The target in the experiment is sweet almond β-glucosidase. In words: droplet absorbance assay of 4-nitrophenyl glucopyranoside hydrolysis ([…] nm); IC50 […] converted to Ki by Cheng-Prusoff. Type of experiment: biochemical, Prunus dulcis.

The structures appear in SMILES notation. Structures can show the parent of a compound that is named as a salt.

On to `OC[C@H]1NC[C@H](O)[C@@H](O)[C@@H]1O` [DNM, 1-deoxynojirimycin hydrochloride], for which the Ki was roughly 36 µM.

The Ki is a measure of affinity in units of concentration, obtained from inhibition or displacement.

The values above are taken from PMC3715888, “A Fully Unsupervised Compartment-on-Demand Platform for Precise Nanoliter Assays of Time-Dependent Steady-State Enzyme Kinetics and Inhibition” (Analytical Chemistry, 2013).
